Results reported in patent publication US11040937B2, “Amide derivative” (TOHOKU UNIVERSITY, priority 2014, dated 2021).
Where two headings read alike, the source gives them in different places.

Key:
[1] = tested on: human OPN promoter (pOPN1-luc) in A549/OPNluc cells; test: Luciferase assay: luciferase expression under control of OPN promoter; assay type: cell-based
Source text: (§1) A reporter vector pOPN1-luc obtained by the insertion of a human OPN promoter sequence (−765 to 23) into the multiple cloning site of pGL-3 basic vector (Promega) expresses luciferase when transfected into animal cells. The pOPN1-luc was transfected into a human non-small cell lung cancer-derived cell line A549 together with pPUR (Clontech) that expresses a puromycin resistance gene (puromycin-N-acetyl-transferase gene), and then cells expressing luciferase which could grow a puromycin-supplemented medium were selected. The selected cells were named “A549/OPNluc cells” and used for observation of luciferase expression inhibitory effect under control of OPN promoter, as described below.
(§2) A test compound was added to a culture containing A549/OPNluc cells to observe its influence on the amount of luciferase expressed in the cells. Here, it can be considered that when the test compound has a cell cytotoxity or cell growth inhibitory effect, the total expression level of luciferase is reduced due to a reduction in the number of living cells that depends on the concentration of the test compound, and therefore the luciferase expression inhibitory effect of the test compound under control of OPN promoter cannot be properly evaluated. For this reason, WST assay for quantification of cell proliferation ability or cell viability by colorimetric measurement was firstly performed to determine IC50 (concentration for 50% inhibition of cell growth) of the test compound for cell growth. Then, luciferase activity measurement was performed to determine EC50 (concentration for 50% inhibition of luciferase expression) of the test compound for luciferase expression under control of OPN promoter.
The same steps as in the above-mentioned WST assay were performed in which each solution of only DMSO (control) or the diluted test compound (sample) was added in an amount of 0.5 μL to each well containing the cell suspension to achieve 200-fold dilution, and the solution in each well was mixed with a vortex mixer, and the 96-well plate was incubated in a CO2 incubator (at 37° C. and 5% CO2) for 48±4 hours.
Luciferase Assay Substrate (hereinafter referred to as “LAS”) supplied in Luciferase Assay Systems (Promega: Cat #E1500) was dissolved in Luciferase Assay Buffer (LAB) to prepare a luciferase reagent. 5×Cell Culture Lysis Reagent (hereinafter referred to as “CCLR”) was diluted by 5 times with water to prepare 1×CCLR.
After the incubation for 48±4 hours, the medium in each well was completely removed, and 1×CCLR was dispensed into each well in an amount of 50 μL. The 96-well plate was allowed to stand at room temperature for 30 minutes, and then 1×CCLR in each well was used as an assay sample. The luciferase reagent (100 μL) was placed in a tube for chemiluminescence measurement, and the assay sample (20 μL) was added to the tube and mixed with the luciferase reagent to measure chemiluminescence (Relative Luminescence Intensity: RLU) using TB 20/20 (Promega) or GloMax 20/20 (Promega).
The RLU values of the control wells and the sample wells at each concentration were input into an Excel file, and the percentages of RLU values of the sample wells at each concentration to the average RLU value of the control wells were determined. From these values, a fitted curve was determined by the method of least squares to calculate EC50. Also, the percentages of RLU values of the sample wells at each concentration to the average RLU value of the control wells were divided by the percentages of absorbance values of the compounds in WST assay at the same concentrations as those of this assay (to the control), and a fitted curve was determined from the calculated values by the method of least squares to calculate corrected EC50.

A549/OPNluc cells = test: WST assay for cell growth / cell viability; assay type: cell-based, human; settings: 48±4 hours, WST-1, read-out: IC50 (concentration for 50% inhibition of cell growth)
Source text: as §1, §2
A549/OPNluc cells were suspended in DMEM medium containing 10% fetal calf serum (FCS) and 1% penicillin/streptomycin (P/S) at 3×10^4 cells/mL to obtain a cell suspension, and then the cell suspension was dispensed into each well of a 96-well plate in an amount of 100 μL. In order to perform the assay in triplicate, wells were prepared for a control group, and 3 wells were prepared for each test compound-treated group at each concentration. After the dispensation, the 96-well plate was incubated in a CO2 incubator (at 37° C. and 5% CO2) for 24±4 hours.
The present compound was dissolved in dimethylsulfoxide (DMSO) to obtain a 50 mmol/L solution, and the compound solution was stored at −80° C. The compound solution was diluted with DMSO in 2-fold dilution series (usually, in the range of 0.31 mmol/L to 20 mmol/L) to prepare test compound solutions whose concentration varied by two fold for WST assay.
Each solution of only DMSO (control) and the diluted test compound (sample) was dispensed into each well containing the cell suspension in an amount of 0.5 μL (200-fold dilution). The solution in each well was mixed with a vortex mixer, and then the 96-well plate was incubated in a CO2 incubator (at 37° C. and 5% CO2) for 48±4 hours. Then, Premix WST-1 Reagent (TAKARA BIO INC.) was added in an amount of 10 μL to each well. The solution in each well was mixed with a vortex mixer, and then the 96-well plate was incubated at 37° C. and 5% CO2. After 60 minutes or 120 minutes, the absorbance values (450 nm) were measured with a microplate reader (Bio-Rad; Benchmark or Thermo Scientific; Varioskan Flash).
The absorbance values of the control wells and the sample wells at each concentration were input into an Excel file to determine the percentages of absorbance values of the sample wells at each concentration with to the average absorbance value of the control wells. From the determined values, a fitted curve was determined by the method of least squares to calculate IC50.

[2] = Homo sapiens, A549, A549/OPNluc cells, 48±4 hours, read-out: EC50 (concentration for 50% inhibition of luciferase expression)
[3] = Homo sapiens, A549, EC50 corrected for decrease in viable cells (RLU % divided by WST %), read-out: corrected EC50
[4] = Homo sapiens, A549, A549/OPNluc cells

Row | SMILES | EC50 [1, 2] | EC50 [1, 3] | IC50 (A549/OPNluc cells; [4]) | EC50 ([1]; A549/OPNluc cells, 48±4 hours, read-out: EC50 (concentration for 50% inhibition of luciferase expression)) | EC50 ([1]; EC50 corrected for decrease in viable cells (RLU % divided by WST %), read-out: corrected EC50) | IC50 (A549/OPNluc cells; A549/OPNluc cells)
1 | Nc1c(Oc2ccc(O)cc2)cccc1C(=O)CCNC(=O)c1ccc(O)cc1 [Compound 1, N-(3-(2-Amino-3-(4-hydroxyphenoxy)phenyl)-3-oxopropyl)-4-hydroxybenzamide] | 17.1 µM | 24.5 µM | 65.9 µM |  |  | 
2 | O=C(NCCc1c[nH]c2c(Oc3ccc(O)cc3)cccc12)c1ccc(O)cc1 [Compound 2, 4-Hydroxy-N-(2-(7-(4-hydroxyphenoxy)-1H-indol-3-yl)ethyl)benzamide] | 26.8 µM | 60.3 µM | 51 µM |  |  | 
3 | O=C(NCCC(=O)c1cccc(O)c1O)c1ccc(Oc2ccc(O)cc2)cc1 [Compound 3, N-(3-(2,3-Dihydroxyphenyl)-3-oxopropyl)-4-(4-hydroxyphenoxy)benzamide] | 32.2 µM | 103 µM | 32.5 µM |  |  | 
4 | COc1ccc(C(=O)NCCC(=O)c2cccc(Oc3ccc(O)cc3)c2N)cc1 [Compound 4, N-(3-(2-Amino-3-(4-hydroxyphenoxy)phenyl)-3-oxopropyl)-4-methoxybenzamide] | 27.6 µM | 37 µM | 67.1 µM |  |  | 
5 | COc1ccc(Oc2cccc(C(=O)CCNC(=O)c3ccc(OC)cc3)c2N)cc1 [Compound 5, N-(3-(2-Amino-3-(4-methoxyphenoxy)phenyl)-3-oxopropyl)-4-methoxybenzamide] | 19.5 µM | 22.6 µM | 64.9 µM |  |  | 
6 | COc1cccc(C(=O)NCCC(=O)c2cccc(Oc3ccc(O)cc3)c2N)c1 [Compound 7, N-(3-(2-Amino-3-(4-hydroxyphenoxy)phenyl)-3-oxopropyl)-3-methoxybenzamide] | 35.6 µM | 43.7 µM | 63.3 µM |  |  | 
7 | CC(=O)NCCC(=O)c1cccc(Oc2ccc(O)cc2)c1N [Compound 8, N-(3-(2-Amino-3-(4-hydroxyphenoxy)phenyl)-3-oxopropyl)-acetamide] | > 100 µM |  | > 100 µM |  |  | 
8 | Nc1c(Oc2ccc(O)cc2)cccc1C(=O)CCNC(=O)c1ccc(F)cc1 [Compound 9, N-(3-(2-Amino-3-(4-hydroxyphenoxy)phenyl)-3-oxopropyl)-4-fluorobenzamide] | 41.5 µM | 65.6 µM | 93.7 µM |  |  | 
9 | Nc1c(Oc2ccc(O)cc2)cccc1C(=O)CCNC(=O)C1CCCCC1 [Compound 10, N-(3-(2-Amino-3-(4-hydroxyphenoxy)phenyl)-3-oxopropyl)-cyclohexanecarboxamide] | 31.5 µM | 41.7 µM | 52.8 µM |  |  | 
10 | Nc1c(Oc2ccc(O)cc2)cccc1C(=O)CCNC(=O)C1CCOCC1 [Compound 11, N-(3-(2-Amino-3-(4-hydroxyphenoxy)phenyl)-3-oxopropyl)-(tetrahydro-2H-pyran-4-yl)-carboxamide] | 166 µM |  | 200 µM |  |  | 
11 | COc1cccc(C(=O)CCNC(=O)c2ccc(O)cc2)c1N [Compound 12, N-(3-(2-Amino-3-methoxyphenyl)-3-oxopropyl)-4-hydroxybenzamide] | > 200 µM |  | > 200 µM |  |  | 
12 | Nc1c(O)cccc1C(=O)CCNC(=O)c1ccc(O)cc1 [Compound 13, N-(3-(2-Amine-3-hydroxyphenyl)-3-oxopropyl)-4-hydroxybenzamide] | > 200 µM |  | > 200 µM |  |  | 
13 | Cc1ccc(Oc2cccc(C(=O)CCNC(=O)c3ccc(O)cc3)c2N)cc1 [Compound 14, N-(3-(2-Amino-3-(4-methylphenoxy)phenyl)-3-oxopropyl)-4-hydroxybenzamide] | 5.6 µM | 5 µM | 61.1 µM |  |  | 
14 | Nc1c(Oc2ccc(C(F)(F)F)cc2)cccc1C(=O)CCNC(=O)c1ccc(O)cc1 [Compound 15, N-(3-(2-Amino-3-(4-(trifluoromethyl)phenoxy)phenyl)-3-oxopropyl)-4-hydroxybenzamide] | 5.6 µM | 5.3 µM | 35.4 µM |  |  | 
15 | COc1ccc(Oc2cccc(C(=O)CCNC(=O)c3ccc(O)cc3)c2N)cc1OC [Compound 16, N-(3-(2-Amino-3-(3,4-dimethoxyphenoxy)phenyl)-3-oxopropyl)-4-hydroxybenzamide] | 9.8 µM | 12.5 µM | 34.9 µM |  |  | 
16 | Nc1c(Oc2ccc(Cl)cc2)cccc1C(=O)CCNC(=O)c1ccc(O)cc1 [Compound 17, N-(3-(2-Amino-3-(4-chlorophenoxy)phenyl)-3-oxopropyl)-4-hydroxybenzamide] | 3.7 µM | 4.2 µM | 47.7 µM |  |  | 
17 | O=C1NCCc2c1[nH]c1c(Oc3ccc(O)cc3)cccc21 [Compound 18, 8-(4-Hydroxyphenoxy)-1,2,3,4-tetrahydro-β-carboline-1-one] | > 50 µM |  | 49.4 µM |  |  | 
18 | CC(=O)Nc1ccc(C(=O)NCCC(=O)c2cccc(Oc3ccc(Cl)cc3)c2N)cc1 [Compound 20, N-(3-(2-amino-3-(4-chlorophenoxy)phenyl)-3-oxopropyl)-4-acetylaminobenzamide] | 16.3 µM | 18 µM | > 100 µM |  |  | 
19 | COc1ccc(Oc2cccc(C(=O)NCCNC(=O)c3ccc(O)cc3)c2)cc1 [Compound 21, N-(2-(3-(4-Methoxyphenoxy)benzoylamino)ethyl)-4-hydroxybenzamide] | 16.1 µM | 17 µM | 95.9 µM |  |  | 
20 | COc1ccc(Oc2ccccc2C(=O)NCCNC(=O)c2ccc(O)cc2)cc1 [Compound 22, N-(2-(2-(4-Methoxyphenoxy)benzoylamino)ethyl)-4-hydroxybenzamide] | 42.2 µM | 50.4 µM | > 100 µM |  |  | 
21 | O=C(CCC(=O)Nc1cccc(Oc2ccc(Cl)cc2)c1)Nc1ccc(O)cc1 [Compound 23, N-(4-Hydroxyphenyl)-4-(3-(4-chlorophenoxy)phenylamino)-4-oxobutanamide] | 71.5 µM | 82.8 µM | > 100 µM | 40.6 µM | 50.9 µM | 87.3 µM
22 | O=C(CCNC(=O)c1ccc(O)cc1)Nc1cccc(Oc2ccc(Cl)cc2)c1 [Compound 24, N-(3-(3-(4-Chlorophenoxy)phenylamino)-3-oxopropyl)-4-hydroxybenzamide] | 7.5 µM | 11.4 µM | 29.4 µM |  |  | 
